In article PMC9655874, “Analysis of Volatile Secondary Metabolites in Ocimum basilicum Cell Suspensions: Inhibition, In Silico Molecular Docking, and an ADMET Analysis against Proteolytic Enzymes of Rhynchophorus ferrugineus” (Plants, 2022):
≈ marks a conversion by molar mass, not a printed value. Where “and” joins values, the source holds several entries; their conditions need not be identical. Equal values may be shown once.

How the values were obtained:
[1] = tested on: R. ferrugineus adults; test: whole plant or invertebrate; format: in vivo; conditions: Rhynchophorus ferrugineus, read-out: LC50 (µg/mL) 95% CF
Procedure: (§1) Cells were suspended in the methanolic extract at serially increasing concentrations for 40 days. To dilute the compounds, TritonX-100 (0.1%) was added to acetone after the chemicals were dissolved. Adults or larvae of R. ferrugineus were purchased. They were then cultured using long lengths of sugar cane stem. The extracts’ anti-larvae action was assessed by applying topically to larvae and keeping them at 4–5 °C for 5 min. Utilizing a manually controlled micro-applicator, each larva had extract injected into its dorsum in three separate 10 µL doses using a 50-ll micro-syringe from Hertfordshire, UK’s Burkard Manufacturing Co., Ltd. (MS-N50; Shizuoka, Japan’s Ito Corp.). Five larvae in a box with three replications were fed on portions of long sugarcane stem measuring 10 cm. […] The sugarcane stem’s ten-centimeter-long portions cut into equal longitudinal halves were used to measure the antifeedant activity against adults. Long sections of sugarcane stem with a surface area of approximately 32.2 cm^2 were dried in air at room temperature, assuming a dipping time of 10 s and an initial serial concentration of (10 mL). Each treated object remained in a plastic container. Each box included an additional pair (male and female). Each therapy was administered ten times. In total, 24-, 48-, 72-, and 96-h feeding observations were assessed.
(§2) Statistics and probit analysis were performed using SPSS 25.0, as mentioned by Finney. To sum up, all numerical predictions of toxicity variables and findings were presented as the mean ± SE. We regressed mortality and translated the resulting dosage to an LC50 value (µg/mL). […] Enzyme activity data were analyzed using an ANOVA. Means were separated using the SNK (Student–Newman–Keuls) test, and deviations at the p ˂ 0.05 level were considered noteworthy.

[2] = tested on: trypsin proteinase of R. ferrugineus midgut; test: Trypsin activity in midgut of treated larvae (in vivo); conditions: larvae treated 24 h, midgut preparation
Procedure: (§4) We used a serine protease assay buffer and a modified version of the fast microplate method to analyze the serine proteinase’s specific activity in mixtures (150 µL) [26]. […] The sample (10 µL) was diluted using an assay buffer to 50 µL to determine the presence of trypsin proteinase, chymotrypsin proteinase, and elastase. Assay buffer was used to dilute stock substrates of BAρNA (100 mg/mL DMSO), both SAAPFρNA and SAAPLρNA (100 mg/mL DMF), to 1.0 mg/mL. To halt the reaction after 15 min of incubation at 37 °C, 50 µL of acetic acid (30%, v/v) was added. The intensity of the activity was measured using a 405 nm ELISA plate reader. A denaturation enzyme was used in place of an active enzyme in the experiment mixture. For three substrates (SAAPLρNA, BAρNA, and SAAPFρNA), activity levels of certain proteinases were assessed as OD mg^−1 protein min^−1.
(§5) An experiment that was set up free of potential inhibitors served as a control. An ELISA plate fast reader measured the enzymes’ absorption at various wavelengths. For each inhibitor, the control enzyme’s percentage activity was assessed for each enzyme. Four instars midgut larvae were treated with previous concentrations of extracts or compounds, assessed as previously mentioned, to measure the protease activity in vivo. Larvae were subjected to extract- and compound-treated leaf discs for 24 h.

[3] = biological target: trypsin proteinase of R. ferrugineus midgut; test: Serine proteinase specific activity, trypsin (in vitro); conditions: 4th instar midgut homogenate
Procedure: as §4, §5

[4] = tested on: total proteases of R. ferrugineus midgut; test: Total protease activity in midgut of treated larvae (in vivo); conditions: larvae treated 24 h, midgut preparation
Procedure: (§6) The homogenate of R. ferrugineus 4th midgut instar larvae (lab strain) was assayed for total proteolytic enzyme activity using azocasein, as Darrag et al. [26], with modifications. Ten 4th midgut larval homogenates were carefully removed, incised, and then rinsed in a solution containing 0.9% NaCl before even being homogenized in a buffer (500 µL) containing 5 mM dithiothreitol (DTT), 0.1% (v/v) Triton X-100, and 50 mM N-2-hydroxyethyl piperazine-N′-2-ethane sulphonic acid (HEPS), and 8.0 pH. It was spun in a centrifuge (Sigma 3k30), and the remaining homogenates were from a preliminary phase for 30 min at 5000 rpm. Using the supernatants, the protein concentration and proteolytic enzyme activity were determined. […] Before each reaction experiment, 40-day-old methanolic extract of cell suspension, pure chemicals, and 10 μL of enzyme specimens were incubated for 10 min. The addition of the substrate initiated the reaction, which was allowed for 20 min in the case of leupeptin before being terminated 180 min later by adding 300 µL of cold tri-chloroacetic acid (TCA) (10%, v/v). Twenty minutes were spent centrifuging the mixture at 5000 rpm (Sigma 3k30). Overall, 10 µL of NaOH (10 N) was added to the supernatant, and the absorbance was measured using an ELISA plate reader at 450 nm to quantify the enzymes’ specific activity as OD450/mg protein/h.
as §5

[5] = biological target: metalloprotease of R. ferrugineus midgut; test: Metalloproteinase specific activity, CEGR substrate (in vitro); conditions: 4th instar midgut homogenate
Procedure: (§7) The ten midgut larvae from the fourth stage were neatly eliminated, dissected, and repeatedly washed with 0.9% NaCl solution. A 500 µL protease test solution, including 50 mM HEPS, 0.1% Triton X-100, and 5 mM DTT (pH 8.0), was utilized to homogenize the midgut instar. The homogenates were then centrifuged employing a Sigma 3k30 (cooling centrifuge) at 5000 rpm for 30 min to evaluate the supernatant’s enzyme activity and protein content. Before introducing CEGR (125 µL, 2% (w/v)), each experiment’s supernatant (10 µL) was incubated in an assay buffer (60 µL) at 37 °C for 20 min (pH 8). During a 10 min incubation period without a substrate, 10 µL enzyme samples were tested (20 min. for EDTA, EGTA, 1.10, Phenanthroline). After 180 min at 37 °C, 300 µL of cold TCA, 10% (v/v), was used to terminate the reaction. For the next 20 min, the mixture was spun (5000 rpm, Sigma 3K30). The absorbance was measured at 450 nm after mixing the supernatant with hydroxide solution (10 µL, 10 N) using an ELISA reader. An enzyme-free assay combination was utilized as a blank, and particular activity was evaluated utilizing the OD493 mg^−1 protein min^−1 and an enzyme-free blank specimen.
as §5

[6] = tested on: metalloprotease of R. ferrugineus midgut; test: Metalloprotease activity in midgut of treated larvae (in vivo); conditions: larvae treated 24 h, midgut preparation
Procedure: as §7, §5

[7] = biological target: total proteases of R. ferrugineus midgut; test: Total proteolytic enzyme activity of 4th instar midgut homogenate, azocasein (in vitro)
Procedure: as §6, §5

[8] = tested on: gut proteases of R. ferrugineus fourth larval instar; test: Specific protease inhibitors against gut proteases of fourth larval instar (in vitro); format: biochemical, Rhynchophorus ferrugineus; conditions: Figure S2, in vitro
Procedure: As a starting point (blank), an assessment combination not containing enzymes was utilized. TLCK (trypsin proteinase inhibitor), PMSF (general serine proteinase inhibitor), EDTA (EDTA-metalloproteinase inhibitor), iodoacetic acid (an iodoacetic acid-cysteine proteinase inhibitor), TPCK (chymotrypsin-proteinase inhibitor), and Leupeptin (as general proteinase inhibitor) were added to the reactions. Homogenates of larval fourth-gut tissue were prepared using the same methodology described for the enzyme activity test. The inhibitory test was conducted via a microplate assay, as reported previously. A series of inhibitor levels were prepared to determine the greatest inhibition activity. Concentrations of 0.01, 0.05, 0.1, and 1.0 mM leupeptin; 0.005, 0.01, 0.05, 0.1, and 1 mM TLCK and TPCK; 0.1, 1.0, 10, 50, and 100 mM PMSF; and 0.01, 0.05, 0.1, 1, and 2 mM iodoacetic acid, 100 mM; 1,10 phenanthroline, EDTA, and EGTA concentrations of 0.1, 1, 10, 50, and 100 mM.

[9] = tested on: R. ferrugineus 4th larvae; test: Topical application (contact insecticide) to fourth instar larvae; format: in vivo, Rhynchophorus ferrugineus; conditions: for LD50 (µg/Larvae) 95% CF: 4th larvae, topical, 95% confidence limits in brackets; for LD50: larvae
Procedure: as §1, §2

[10] = biological target: cysteine protease of R. ferrugineus midgut; test: Cysteine proteinase activity (in vitro); format: biochemical, Rhynchophorus ferrugineus; conditions: 4th instar midgut homogenate
Procedure: (§3) Utilizing the substrate N-benzoyl-Phe-Val-Arg-p-nitroanilide hydrochloride and certain modifications, the cysteine proteinases of R. ferrugineus homogenate from the fourth midgut instar was tested for activity. Ten larvae of the fourth midgut were carefully taken out, dissected, and periodically washed with 0.9% (w/v) NaCl solution, assay buffer containing 50 mM HEPS, 5 mM DTT, and 0.1% Triton X-100 (v/v) (pH 8.0, 500 µL) was used to homogenize the samples. The homogenates were spun using a cooling Sigma 3k30 centrifuge for 30 min at 5000 rpm. […] Before introducing 100 µL of the substrate, 10 µL of the supernatant was incubated in assay buffer (60 µL, pH = 8) at 37 °C for 30 min. Enzyme samples in 10 µL were incubated for 10 min with iodoacetic acid before the addition of the substrate. […] The absorbance at 520 nm was measured after spinning the reaction for 6 min at 5000 rpm. The activity in the midgut was assayed at OD520.60 min^−1 mg^−1 of protein with an ELISA rapid reader.

[11] = tested on: cysteine protease of R. ferrugineus midgut; test: Cysteine protease activity in midgut of treated larvae (in vivo); parameters: species or system Rhynchophorus ferrugineus; conditions: larvae treated 24 h, midgut preparation
Procedure: as §3

[12] = biological target: elastase of R. ferrugineus midgut; test: Serine proteinase specific activity, elastase (in vitro); format: biochemical, Rhynchophorus ferrugineus; conditions: 4th instar midgut homogenate
[13] = tested on: elastase of R. ferrugineus midgut; test: Elastase activity in midgut of treated larvae (in vivo); parameters: species or system Rhynchophorus ferrugineus; conditions: larvae treated 24 h, midgut preparation

Structure (SMILES) | LC50 [1] [µg/mL] | IC50 trypsin proteinase (in vivo) [2] | IC50 trypsin proteinase (in vitro) [3] [µg/mL] | IC50 total proteases (in vivo) [4] [µg/mL] | IC50 metalloprotease (in vitro) [5] [µg/mL] | IC50 metalloprotease (in vivo) [6] [µg/mL] | IC50 total proteases (in vitro) [7] [µg/mL] | Effect on extracted gut proteases of the fourth larval instar [8] | LD50 (µg/Larvae) 95% CF [9] | LD50 ([9]; topical application) [µg/larva] | LD50 [9] [µg/larva] | IC50 cysteine protease (in vitro) [10] [µg/mL] | IC50 cysteine protease (in vivo) [11] [µg/mL] | IC50 elastase (in vitro) [12] [µg/mL] | IC50 elastase (in vivo) [13] [µg/mL]
C=CCc1ccc(OC)cc1 [estragole] | 3590 (≈ 24200 µM) | 628.7 µg/mL (≈ 4240 µM) | 257.5 (≈ 1740 µM) | 314.8 (≈ 2120 µM) | 627.8 (≈ 4240 µM) | 1014.1 (≈ 6840 µM) | 254.7 (≈ 1720 µM) |  |  |  |  |  |  |  | 
c1cnc2c(c1)ccc1cccnc12 [1,10 phenanthroline] |  |  |  |  |  |  |  | significantly inhibited |  |  |  |  |  |  | 
C=C1/C=C/[C@H](C(C)C)CC/C(C)=C/CC1 [germacrene D] | 2040 (≈ 10000 µM) |  | 144.2 (≈ 706 µM) | 861.2 (≈ 4210 µM) | 112.3 (≈ 550 µM) | 574.6 (≈ 2810 µM) | 182.1 (≈ 891 µM) |  | 21.3 (19.7–22.5) µg/Larvae | 21.3 |  |  |  |  | 
O=C(O)CN(CCN(CC(=O)O)CC(=O)O)CC(=O)O [EDTA] |  |  |  |  |  |  |  | significantly inhibited |  |  |  |  |  |  | 
CC(C)=CCC/C(C)=C\CO [nerol] | 1950 (≈ 12600 µM) | 186.3 µg/mL (≈ 1210 µM) | 68.1 (≈ 441 µM) | 248.6 (≈ 1610 µM) | 106.7 (≈ 692 µM) | 189.1 (≈ 1230 µM) | 188.3 (≈ 1220 µM) |  | 15.6 (14.3–16.2) µg/Larvae | 15.6 | 15.6 |  |  |  | 
C=C(C)C1CCC(C)C2=C(C1)C(C)CC2 (stereo not drawn) [α-guaiene] | 1490 (≈ 7300 µM) | 454.4 µg/mL (≈ 2220 µM) | 66.8 (≈ 327 µM) | 694.7 (≈ 3400 µM) | 124.9 (≈ 611 µM) | 594.7 (≈ 2910 µM) | 107.4 (≈ 526 µM) |  | 19.2 (17.8–20.7) µg/Larvae | 19.2 |  | 238.5 (≈ 1170 µM) | 642.3 (≈ 3140 µM) |  | 
C=CC(=C)CCC=C(C)CCC=C(C)C [β-farnesene] | 1360 (≈ 6640 µM) | 425.8 µg/mL (≈ 2080 µM) | 60.2 (≈ 295 µM) | 675.2 (≈ 3300 µM) | 101.5 (≈ 497 µM) | 545.7 (≈ 2670 µM) | 88.6 (≈ 434 µM) |  | 18.4 (17.1–19.7) µg/Larvae | 18.4 |  | 128.4 (≈ 628 µM) | 536.8 (≈ 2630 µM) |  | 
Cc1ccc(S(=O)(=O)N[C@@H](Cc2ccccc2)C(=O)CCl)cc1 [TPCK] |  |  |  |  |  |  |  | significantly inhibited |  |  |  |  |  |  | 
C=C/C(C)=C/CC=C(C)C [(E)-β-ocimene] | 3010 (≈ 22100 µM) |  | 157.2 (≈ 1150 µM) | 273.2 (≈ 2010 µM) | 321.7 (≈ 2360 µM) |  | 207.4 (≈ 1520 µM) |  | 31.2 (27.4–32.8) µg/Larvae | 31.2 |  |  |  |  | 
CC1=CCC(C(C)C)=CC1 [γ-terpinene] |  | 594.1 µg/mL (≈ 4360 µM) | 229.7 (≈ 1690 µM) | 337.4 (≈ 2480 µM) | 526.8 (≈ 3870 µM) |  | 268.1 (≈ 1970 µM) |  |  |  |  |  |  | 154.3 (≈ 1130 µM) | 315.8 (≈ 2320 µM)
O=C(O)CI [iodoacetic acid] |  |  |  |  |  |  |  | significantly inhibited |  |  |  |  |  |  | 
C=C1CC/C=C(\C)CC[C@@H]2[C@@H]1CC2(C)C [β-caryophyllene] | 1520 (≈ 7450 µM) | 489.3 µg/mL and 542.8 µg/mL | 70.4 (≈ 344 µM) | 748.2 (≈ 3660 µM) | 314.5 (≈ 1540 µM) |  | 176.3 (≈ 863 µM) |  | 20.1 (18.7–21.4) µg/Larvae | 20.1 |  | 204.4 (≈ 1000 µM) | 586.3 (≈ 2870 µM) |  | 
O=C(O)CN(CCOCCOCCN(CC(=O)O)CC(=O)O)CC(=O)O [EGTA] |  |  |  |  |  |  |  | significantly inhibited |  |  |  |  |  |  | 
Cc1ccc(S(=O)(=O)N[C@@H](CCCCN)C(=O)CCl)cc1 [TLCK] |  |  |  |  |  |  |  | significantly inhibited |  |  |  |  |  |  | 
C=C1CCC2CC1C2(C)CCC=C(C)C (stereo not drawn) [β-bergamotene] | 1290 (≈ 6330 µM) | 284.5 µg/mL (≈ 1390 µM) | 58.5 (≈ 286 µM) | 598.3 (≈ 2930 µM) | 134.8 (≈ 660 µM) | 613.5 (≈ 3000 µM) | 78.9 (≈ 386 µM) |  | 17.2 (16.1–18.4) µg/Larvae | 17.2 |  | 119.6 (≈ 585 µM) | 521.4 (≈ 2550 µM) |  | 
